The CheMixHub viscosity set
“And” between values parts separate entries of the source, which are not always exact repeats. Equal values may be shown once.

Experiment: xn = mol fraction of the nth substance listed

COCCOC + CC1COC(=O)O1
viscosity
Settings | 298.15 K | 308.15 K | 318.15 K
101 kPa, x1 = 0.2 | 1.617 mPa·s and 1.616 mPa·s | – | –
101 kPa, x1 = 0.45 | 1.009 mPa·s and 1.007 mPa·s | – | –
101 kPa, x1 = 0.7 | 0.66 mPa·s and 0.659 mPa·s | – | –
101.33 kPa, x1 = 0.0493 | 2.227 mPa·s | 1.833 mPa·s | 1.561 mPa·s
101.33 kPa, x1 = 0.0999 | 1.96 mPa·s | 1.659 mPa·s | 1.417 mPa·s
101.33 kPa, x1 = 0.1524 | 1.752 mPa·s | 1.495 mPa·s | 1.277 mPa·s
101.33 kPa, x1 = 0.1867 | 1.637 mPa·s | 1.402 mPa·s | –
101.33 kPa, x1 = 0.2298 | 1.507 mPa·s | 1.297 mPa·s | 1.113 mPa·s
101.33 kPa, x1 = 0.2769 | – | 1.183 mPa·s | –
101.33 kPa, x1 = 0.3128 | 1.289 mPa·s | – | 0.9676 mPa·s
101.33 kPa, x1 = 0.3708 | 1.162 mPa·s | 0.9973 mPa·s | 0.881 mPa·s
101.33 kPa, x1 = 0.4036 | 1.097 mPa·s | 0.9447 mPa·s | 0.8272 mPa·s
101.33 kPa, x1 = 0.4686 | 0.9699 mPa·s | – | –
101.33 kPa, x1 = 0.5193 | 0.8882 mPa·s | 0.7779 mPa·s | 0.6827 mPa·s
101.33 kPa, x1 = 0.5704 | – | 0.7178 mPa·s | 0.6389 mPa·s
101.33 kPa, x1 = 0.6382 | 0.7272 mPa·s | – | 0.5728 mPa·s
101.33 kPa, x1 = 0.6767 | 0.6885 mPa·s | 0.6105 mPa·s | 0.5449 mPa·s
101.33 kPa, x1 = 0.7589 | 0.6047 mPa·s | – | 0.4782 mPa·s
101.33 kPa, x1 = 0.8103 | 0.5589 mPa·s | 0.5052 mPa·s | 0.4571 mPa·s
101.33 kPa, x1 = 0.8432 | 0.5429 mPa·s | 0.4728 mPa·s | 0.4376 mPa·s
101.33 kPa, x1 = 0.9035 | 0.4872 mPa·s | 0.4381 mPa·s | 0.397 mPa·s
101.33 kPa, x1 = 0.9483 | 0.4564 mPa·s | 0.4073 mPa·s | 0.375 mPa·s
101.33 kPa, x2 = 0.2217 | 0.5911 mPa·s | 0.5265 mPa·s | 0.4711 mPa·s
101.33 kPa, x2 = 0.3749 | 0.7628 mPa·s | 0.6716 mPa·s | 0.5956 mPa·s
101.33 kPa, x2 = 0.5841 | 1.099 mPa·s | 0.9453 mPa·s | 0.8342 mPa·s
101.33 kPa, x2 = 0.7836 | 1.594 mPa·s | 1.356 mPa·s | 1.168 mPa·s

COC(C)=O + CC#N
303.15 K, 101.33 kPa
Settings | viscosity [mPa·s]
x2 = 0.1087 | 0.3472
x2 = 0.1994 | 0.3482
x2 = 0.3009 | 0.3485
x2 = 0.4037 | 0.3481
x2 = 0.4994 | 0.3474
x2 = 0.5996 | 0.3461
x2 = 0.7019 | 0.3429
x2 = 0.7979 | 0.3376
x2 = 0.9006 | 0.3322

COc1ccccc1N + CC(=O)O
viscosity [mPa·s], 100 kPa
Settings | x1 = 0.1011 | x1 = 0.1745 | x1 = 0.2562 | x1 = 0.3454 | x1 = 0.4852 | x1 = 0.5894 | x1 = 0.6674 | x1 = 0.7458 | x1 = 0.8979
303.15 K | 1.442 | 1.732 | 2.053 | 2.402 | 2.947 | 3.351 | 3.652 | 3.953 | 4.535
308.15 K | 1.349 | 1.618 | 1.916 | 2.24 | 2.745 | 3.118 | 3.397 | 3.676 | 4.214
313.15 K | 1.257 | 1.505 | 1.78 | 2.078 | 2.541 | 2.885 | 3.141 | 3.397 | 3.891
318.15 K | 1.166 | 1.394 | 1.646 | 1.92 | 2.346 | 2.662 | 2.897 | 3.132 | 3.584
